According to patent publication US20080069896A1, “Antitumor Composition” (Kabushiki Kaisha Sangi, priority 2004, published 2008):

Experiments:
[1] = tested on: fibroblasts during proliferation stage; test: Toxicity test during proliferation stage (MTT assay); type: cell-based; details: rat fibroblasts, 48 hours; for IC50 in the toxicity test during proliferation stage: HAP agents particle diameter 0.1 μm or less
Text: (§1) A male mature rat was deeply anesthetized with ether, and disinfected by wiping carefully its tail with alcohol. The tail end part was cut by several centimeters, and the skin was removed from coccyx. Tendon was attached to the coccyx, and by culturing the same, fibroblasts can be recovered. Coccyx part was further cut finely with a sterilized pair of scissors, and adhered on a sterilized plastic plate with the cut surface down. After resting the plate for a while, DMEM supplemented with 10% FBS was added thereto. In approximately one week, fibroblasts germinated from the coccyx part, and proliferated in the plate. The fibroblasts collected from rat tail end were used for the following experiment.
According to “in vitro toxicity test method using MTT” which is an ordinary test method, MTT assay was performed for PtCl4/HAP (particle diameter 0.1 μm or less) and H2PtCl6/HAP (particle diameter 0.1 μm or less). PtCl4/HAP and H2PtCl6/HAP were used by adjusting the final dispersion concentration to 1.0%, with a dispersion liquid each containing 10% platinum as a theoretical value. For comparison, MTT assay was performed for PtCl4 and CDDP. PtCl4 was dissolved at an adequate dose, and then used after serial dilution with PBS (−) For CDDP, injection liquid from Malco was used.
Fibroblasts during proliferation stage on the plate were peeled off with trypsin-EDTA, adjusted to 1×10^4/ml, and poured by aliquot of […] in a 96-well plate.
The 96-well plate added with fibroblasts was cultured for 24 hours, and samples serially diluted with PBS (−) were added by an amount of 10 μl. 48 hours after adding a test sample, 200 μl of PBS (−) was added to the 96-well plate, and approximately 1 min after, all the solution was removed. Immediately, 160 μl of DMSO was added to the plate. However, to the plates in which PtCl4/HAP and H2PtCl6/HAP were added, DMSO was added in an amount of 200 μl, respectively. Each plate was shaken for 5 min in a shaker, to dissolve completely the formed formazan. As it was believed that precipitation of PtCl4/HAP and H2PtCl6/HAP would suppress the colorization, the plates of PtCl4/HAP and H2PtCl6/HAP were rested for 5 min, and 160 μl of the supernatant was moved to another 96-well plate. Test samples for each cell and each concentration, the test was performed for 4 wells or more, and the optical density was measured by using a microplate at 550 nm.

HSC4 = test: MTT assay, human cancer cells HSC4; type: cell-based; details: for IC50 of human cancer cells by MTT assay: HSC4, oral cancer, HAP agents particle diameter 0.1 μm or less; for Platinum content calculated from IC50 of human cancer cells by MTT assay: HSC4, IC50 converted to platinum concentration
Method: Effect of platinum tetrachloride/hydroxyapatite (PtCl4/HAP) and hexachloroplatinate/hydroxyapatite (H2PtCl6/HAP) against human cancer cells (MTT assay)
According to “in vitro toxicity test using MTT”, which is an ordinary test method, MTT assay was performed for PtCl4/HAP (particle diameter 0.1 μm or less), and H2PtCl6/HAP (particle diameter 0.1 μm or less) by using 19 types of human cancer cells. PtCl4/HAP and H2PtCl6/HAP were used by adjusting the final dispersion concentration to 1.0% in a dispersion liquid each containing 10% platinum as a theoretical value. For comparison, MTT assay was performed for PtCl4 and CDDP. PtCl4 was dissolved at an adequate dose, and then used after serial dilution with PBS (−). For CDDP, injection liquid from Malco was used.

[2] = tested on: fibroblasts at confluency; test: Microscopic observation of toxicity effect during resting stage; type: cell-based, rat; details: amount corresponding to 2 ppm of platinum content, fibroblasts at confluency, cultured for 48 hours
Text: as §1
From the result of Example 7, 2 ppm which is a value of platinum content that kills 50% of fibroblasts in CDDP during resting stage was set as a standard. Then, CDDP, PtCl4/HAP, PtCl4 and HAP dispersion liquids in an amount corresponding to 2 ppm of platinum content, were added to the fibroblasts at confluency in a medium, and cultured for 48 hours.

| Structure (SMILES) | Net Pt: platinum content wherein IC50 is converted to platinum concentration, proliferation stage [1] | IC50 in the toxicity test during proliferation stage [1] | IC50 of human cancer cells by MTT assay (HSC4) | Platinum content calculated from IC50 of human cancer cells by MTT assay (HSC4) | Microscopic observation of cell form of cultured fibroblasts [2] |
| --- | --- | --- | --- | --- | --- |
| [Cl][Pt]([Cl])([Cl])[Cl] [PtCl4, platinum tetrachloride] | 2.3 ppm | 4.0 ppm | 5.7 ppm | 3.3 ppm | many cells wherein spindle form was deformed, or having a round form, were observed |
| [NH2][Pt]([NH2])([Cl])[Cl] [CDDP, cisplatin] | 0.3 ppm | 0.5 ppm | 4.5 ppm | 2.9 ppm | most of the cells had a round form |
